Where two headings read alike, the source gives them in different places.
Assays:
[1] = biological target: Human CB1R (Cannabanoid receptor 1) (Homo sapiens (Human), UniProt P21554); test: CB-1 in vitro cAMP (HTRF) assay in HEK-293 cells; assay type: cell-based; settings: HEK-293 cells stably transfected with human CB1R, 250 nM Forskolin, mean where tested more than once, read-out: CB-1 (HEK_cAMP) EC50
In short: (§1)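 HEK-293 cells stably expressing human CB1 or CB2 plated overnight, then tested in HBSS/5 mM HEPES/0.1% BSA with 0.5 mM IBMX and forskolin (1.5 μM working dilution). Intracellular cAMP quantified by competitive HTRF immunoassay (d2-cAMP, cryptate anti-cAMP) against a cAMP standard curve; compounds as 1/3 serial dilutions from 10 mM DMSO stocks.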

[2] = Mouse Fast PK/BBB; assay type: in vivo, Male C57bl/6j mice; settings: oral; for BRAIN Mean Conc. (ng/mL) ± Std. Dev / PLASMA Mean Conc. (ng/mL) ± Std. Dev: Dose 20 mg/kg; for concentration at 4 hr / concentration at 1 hr: male, C57bl/6j, Dose 30 mg/kg
Method: Male C57bl/6j mice were ordered from Charles River at 22-25 g and housed 3 per cage. They were fed standard chow (Purina 5001).
Male C57bl/6j mice were dosed with test compounds at 20 mg/kg or 30 mg/kg. Plasma was collected via retro-orbital bleeding at 1 hr and 4 hrs after dosing. Whole brain without cerebellum was collected at 4 hrs after dosing. Wet brain weight was recorded before freezing. Brains were homogenized in saline and sent for analysis for determination of concentration of test compound.

[3] = DIO mice, 30 mg/kg daily
[4] = biological target: Human CB2R (Cannabanoid receptor 2) (Homo sapiens (Human), UniProt P34972); test: CB-2 in vitro cAMP (HTRF) assay in HEK-293 cells; assay type: cell-based; settings: HEK-293 cells stably transfected with human CB2R, 250 nM Forskolin, mean where tested more than once, read-out: CB-2 (HEK_cAMP) EC50
In short: as §1

[5] = Mouse Fast PK/BBB; assay type: in vivo, Male C57bl/6j mice; settings: male, C57bl/6j, brain, oral, Dose 30 mg/kg, read-out: BRAIN Mean Conc. (ng/mL) ± Std. Dev
[6] = brain, Time 4 hr, read-out: BRAIN Mean Conc. (ng/mL) ± Std. Dev
[7] = plasma, Time 1 hr, read-out: PLASMA Mean Conc. (ng/mL) ± Std. Dev
[8] = plasma, Time 4 hr, read-out: PLASMA Mean Conc. (ng/mL) ± Std. Dev

Chain of Human CB1R (Cannabanoid receptor 1) (P21554 whole entry): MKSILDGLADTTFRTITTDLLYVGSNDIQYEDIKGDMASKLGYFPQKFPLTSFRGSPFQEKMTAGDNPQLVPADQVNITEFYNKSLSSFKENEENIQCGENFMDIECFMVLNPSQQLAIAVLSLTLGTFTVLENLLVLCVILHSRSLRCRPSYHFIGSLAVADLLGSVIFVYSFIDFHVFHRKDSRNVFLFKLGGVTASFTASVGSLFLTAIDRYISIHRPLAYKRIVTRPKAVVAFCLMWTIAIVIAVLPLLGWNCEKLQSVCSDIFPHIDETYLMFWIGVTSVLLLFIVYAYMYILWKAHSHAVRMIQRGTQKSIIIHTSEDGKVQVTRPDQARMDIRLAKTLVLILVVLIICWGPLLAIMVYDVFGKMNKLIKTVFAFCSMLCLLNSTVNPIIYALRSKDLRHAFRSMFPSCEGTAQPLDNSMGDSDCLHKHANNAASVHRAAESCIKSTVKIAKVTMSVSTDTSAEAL
Chain of Human CB2R (Cannabanoid receptor 2) (P34972 whole entry): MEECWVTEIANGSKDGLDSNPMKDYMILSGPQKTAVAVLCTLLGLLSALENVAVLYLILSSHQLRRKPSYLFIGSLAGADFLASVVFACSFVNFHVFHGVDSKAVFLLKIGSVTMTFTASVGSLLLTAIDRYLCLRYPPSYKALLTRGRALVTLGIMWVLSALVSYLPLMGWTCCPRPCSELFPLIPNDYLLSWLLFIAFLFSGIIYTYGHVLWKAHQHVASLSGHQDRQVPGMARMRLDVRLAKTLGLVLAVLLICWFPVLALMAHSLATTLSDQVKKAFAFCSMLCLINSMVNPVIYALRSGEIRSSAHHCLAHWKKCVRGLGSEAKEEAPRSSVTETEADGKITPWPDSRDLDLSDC

Which results are given for O=S(=O)(N1CCC(c2n[nH]c3ccc(C(c4ccc(Cl)cc4)c4ccc(Cl)cc4)cc23)CC1)C(F)(F)F [Compound 17, 5-(bis(4-chlorophenyl)methyl)-3-(1-(trifluoromethylsulfonyl)piperidin-4-yl)-1H-indazole]?
EC50 [1]: 6 nM; BRAIN Mean Conc. (ng/mL) ± Std. Dev ([2]; Time 1 hr): 51.8 ± 16.6 ng/mL; PLASMA Mean Conc. (ng/mL) ± Std. Dev ([2]; Time 1 hr): 4478.2 ± 1576.9 ng/mL; BRAIN Mean Conc. (ng/mL) ± Std. Dev ([2]; Time 4 hr): 103.2 ± 10.8 ng/mL; PLASMA Mean Conc. (ng/mL) ± Std. Dev ([2]; Time 4 hr): 3444.4 ± 1058.9 ng/mL; Fed Blood Glucose (Std Err) ([3]; Day 0): 174 (9) mg/dL; Mean Body Weight (in Grams (Std Err)) ([3]; Day 0): 42.3 (1.0) Grams; Mean Body Weight (in Grams (Std Err)) ([3]; Day 1): 40.2 (1.1) Grams; Mean Daily Food Intake (in Grams (Std Err)) ([3]; Day 1): 0.8 (0.3) Grams; Mean Body Weight (in Grams (Std Err)) ([3]; Day 2): 38.3 (1.0) Grams; Mean Daily Food Intake (in Grams (Std Err)) ([3]; Day 2): 0.3 (0.1) Grams; Mean Body Weight (in Grams (Std Err)) ([3]; Day 3): 37.2 (1.1) Grams; Mean Daily Food Intake (in Grams (Std Err)) ([3]; Day 3): 0.5 (0.1) Grams; Fed Blood Glucose (Std Err) ([3]; Day 4): 150 (7) mg/dL; Mean Body Weight (in Grams (Std Err)) ([3]; Day 4): 36.3 (1.0) Grams; Mean Daily Food Intake (in Grams (Std Err)) ([3]; Day 4): 0.8 (0.1) Grams; Plasma Insulin (Std Err) ([3]; day 5, 2 hours after dose): 1.24 (0.28) ng/mL

Which EC50 [1] does the source give for O=S(=O)(c1cccc(O)c1)N1CCC(c2c3cc(C(c4ccc(Cl)cc4)c4ccc(Cl)cc4)ccc3nn2C2CC2)CC1 [Compound 151, 3-(4-(5-(bis(4-chlorophenyl)methyl)-2-cyclopropyl-2H-indazol-3-yl)piperidin-1-ylsulfonyl)phenol] here?
Its EC50 is 6 nM.

What about the EC50 [4] of the same molecule?
The EC50 was over 10000 nM.

And the concentration at 4 hr [2, 6]?
The concentration at 4 hr was 31.4 ± 13.4 ng/mL.

What about the concentration at 1 hr [2, 7] of the same molecule?
The concentration at 1 hr was 2740 ± 160 ng/mL.

What about the concentration at 4 hr [2, 8] of the same molecule?
The concentration at 4 hr was 884 ± 584 ng/mL.

What about the concentration at 1 hr [5] of the same molecule?
The concentration at 1 hr was 41.8 ± 15.7 ng/mL.

Which EC50 [1] does the source give for NC(=O)c1cc(S(=O)(=O)N2CCC(c3c4cc(C(c5ccc(Cl)cc5)c5ccc(Cl)cc5)ccc4nn3C3CC3)CC2)ccc1Cl [Compound 169, 5-(4-(5-(bis(4-chlorophenyl)methyl)-2-cyclopropyl-2H-indazol-3-yl)piperidin-1-ylsulfonyl)-2-chlorobenzamide] here?
The EC50 was 17 nM.

And the EC50 [4]?
Its EC50 is over 10000 nM.

And the concentration at 4 hr [2, 6]?
The concentration at 4 hr was 54.8 ± 14.5 ng/mL.

And the concentration at 1 hr [2, 7]?
The concentration at 1 hr was 2460 ± 427 ng/mL.

And the concentration at 4 hr [2, 8]?
The concentration at 4 hr was 2310 ± 554 ng/mL.

And the concentration at 1 hr [5]?
The concentration at 1 hr was 29.4 ± 3.9 ng/mL.

Reference: patent US9682940B2, “Indazole derivatives useful as CB-1 inverse agonists” (Janssen Pharmaceutica NV, priority 2015, dated 2017)
